In the test the test system is MYC protein in HeLa cells. In words: Immunoblotting of MYC protein in HeLa cell lysates. The test is classed as cell-based, human. As to conditions: for effect on MYC induction by i-CDK9: pretreatment before i-CDK9. The method, then:
Figure 3. Induction of MYC mRNA production in response to sustained inhibition of CDK9 by i-CDK9 and the requirement of MYC's natural genomic structure in this process. (A) The indicated tumor cell lines were treated with i-CDK9 (0.5 μM) for 2–16 hr and the MYC mRNA levels, which were divided by those in the DMSO-treated cells and averaged from three independent replicates of DNA microarray analysis, were shown as log2 values. (B) HeLa cells were treated with the indicated concentrations of i-CDK9 for 8 hr and the various proteins in the total cell lysates were detected by immunoblotting as indicated. Quantifications of the levels of MYC protein and Ser2-phosphoryalted Pol II (pSer2) in the lysates were shown above and below the immunoblots, respectively. […] The levels of the indicated proteins were examined by immunoblotting. (G) A HeLa-based cell line containing the stably transfected, doxycycline (Dox)-inducible MYC-F-expressing plasmid driven by the CMV promoter was pretreated with (+) or without (−) Dox prior to incubation with i-CDK9 or DMSO. MYC and MYC-F expressed from the endogenous MYC locus and the transfected plasmid, respectively, were detected by immunoblotting. DOI: http://dx.doi.org/10.7554/eLife.06535.007 Figure 3—figure supplement 1. Biphasic response of MYC mRNA production throughout the course of CDK9 inhibition by i-CDK9. DOI: http://dx.doi.org/10.7554/eLife.06535.008 [drawing 2] Figure 3—Figure supplement 2. […] DOI: http://dx.doi.org/10.7554/eLife.06535.009 [drawing 3] TEXT PRINTED IN THE PICTURE: (B) i-CDK9: Fold increase in MYC protein: 1.0 (i-CDK9 (μM): 0); Fold increase in MYC protein: 1.2 (i-CDK9 (μM): 0.01); Fold increase in MYC protein: 1.7 (i-CDK9 (μM): 0.03); Fold increase in MYC protein: 3.6 (i-CDK9 (μM): 0.1); Fold increase in MYC protein: 5.2 (i-CDK9 (μM): 0.3); Fold increase in MYC protein: 5.5 (i-CDK9 (μM): 1.0) | (C) i-CDK9: Fold increase in MYC protein: 1.0 (0.3 μM i-CDK9 (h): 0); Fold increase in MYC protein: 0.9 (0.3 μM i-CDK9 (h): 1); Fold increase in MYC protein: 1.1 (0.3 μM i-CDK9 (h): 2); Fold increase in MYC protein: 1.2 (0.3 μM i-CDK9 (h): 4); Fold increase in MYC protein: 3.3 (0.3 μM i-CDK9 (h): 8)
First, the induction of MYC protein level was confirmed in HeLa cells treated with i-CDK9. […] It took 1.0 µM i-CDK9 to cause up to 85% reduction in pSer2. In a separate time-course analysis, the 8-hr incubation with i-CDK9 (0.3 μM) induced the MYC level by 3.3-fold, whereas the same condition reduced the pSer2 level by only 40% (Figure 3C). Thus, MYC expression was highly responsive to i-CDK9 treatment and occurred at a time point earlier and drug concentration lower than those required to achieve a significant suppression of Ser2 phosphorylation on the Pol II CTD.
(In general: In western blotting, separated proteins are transferred to a membrane and probed.)

From publication PMC4490784, “Compensatory induction of MYC expression by sustained CDK9 inhibition via a BRD4-dependent mechanism” (eLife, 2015) come the findings set out here.

Turning to `Cc1sc2c(c1C)C(c1ccc(Cl)cc1)=N[C@@H](CC(=O)OC(C)(C)C)c1nnc(C)n1-2` [JQ1, reference compound], the “effect on MYC induction by i-CDK9” value is “completely abolished”.
Still for that read-out and setting: in the case of `Cc1sc2c(c1C)C(c1ccc(Cl)cc1)=N[C@H](CC(=O)OC(C)(C)C)c1nnc(C)n1-2` [ctl., reference compound] it was “ineffective”.
For the compound `CN1CC[C@H](c2c(O)cc(O)c3c(=O)cc(-c4ccccc4Cl)oc23)[C@H](O)C1` [Flavopiridol, flavopiridol, reference compound], the MYC protein level entry (e.g. 4 hr, e.g. 0.1 μM) is reported as “significantly elevated”.
